According to patent US6355687B1, “Cosmetic compositions containing substituted iminodibenzyl or fluorene derivatives” (Unilever Home and Personal Care USA, division of Conopco, …, priority 2000, dated 2002):
Where “and” joins values, the source holds several entries; their conditions need not be identical. Equal entries are not always repeated. Where two headings read alike, the source gives them in different places.

Test system: human sebocytes
Experiment: Sebum suppression: 14C-acetate incorporation in cultured human sebocytes, test agent alone or with retinol
Assay type: cell-based
Conditions: for activity at 1 µM / activity at 10 µM: read-out: % of Control
Procedure: Compounds A through H were tested for their potential to suppress sebum expression, alone or in the presence of a retinoid.
Secondary cultures of human sebocytes obtained from an adult […] were grown in 48-well tissue culture plates (Costar Corp.; Cambridge, Mass.) or 96-well tissue culture plates (Packard Co.; Meriden, Conn.) until confluent. Sebocyte growth medium consisted of Clonetics Keratinocyte Basal Medium (KBM) supplemented with 14 μg/ml bovine pituitary extract, 0.4 μg/ml hydrocortisone, 5 μg/ml insulin, 10 ng/ml epidermal growth factor, 1.2×10−10 M cholera toxin, 100 units/ml penicillin, and 100 μg/ml streptomycin. All cultures were incubated at 37° C. in the presence of 7.5% CO2. Medium was changed three times per week.
On the day of experimentation, the growth medium was removed and the sebocytes washed three times with sterile Dulbecco's Modified Eagle Medium (DMEM; phenol red free). Fresh DMEM was added to each sample (duplicates, triplicates, or quadruplicates depending on the experiment) with 5 microliter of test agent solubilized in ethanol either alone or in the presence of one or 10 micromolar of retinol. Controls consisted of addition of ethanol alone, retinol alone, or phenol red, which has estrogen-like activity and is included as a positive control.
Each plate was returned to the incubator for 20 hours followed by the addition of 14C-acetate buffer (5 mM final concentration, 56 mCi/mmol specific activity). Sebocytes were returned to the incubator for four hours after which each culture was rinsed three times with phosphate buffered saline to remove unbound label. Radioactive label remaining in the sebocytes was harvested and counted using a Beckman scintillation counter.

[1] = Homo sapiens, 1 μM test compound + 1 μM Retinol
[2] = Homo sapiens, 1 μM test compound + 10 μM Retinol
[3] = Homo sapiens, 1 μM test compound alone
[4] = Homo sapiens, 10 μM test compound + 1 μM Retinol
[5] = Homo sapiens, 10 μM test compound + 10 μM Retinol
[6] = Homo sapiens, 10 μM test compound alone
[7] = 10 μM test compound + 10 μM Retinol

With `CCCN(CCO)C(=O)CC1c2ccccc2-c2ccccc21` [Compound H] the activity at 1 µM [1] was 76.8%, the activity at 1 µM [2] was 68% and the activity at 1 µM [3] was 65.9%. The activity at 10 µM [4] was 71%, the activity at 10 µM [5] was 73.5% and the activity at 10 µM [6] was 71.1%.
In the case of `CC(O)c1cccc(NC(=O)N2c3ccccc3CCc3ccccc32)c1` (stereo not drawn) [Compound A], the “% of Control” value (1 μM test compound + 1 μM Retinol) is reported as 86.2%, the “% of Control” value (10 μM test compound + 1 μM Retinol) is reported as 85.8% and 45.9% and the “% of Control” value [7] is reported as 80.1% and 44.3%. For the same molecule, the “% of Control” value (10 μM test compound alone, 10 µM) was 88.8%.
With `O=C(CC1c2ccccc2-c2ccccc21)N1CCC(O)(c2ccccc2)CC1` [Compound G] the “% of Control” value (1 μM test compound + 10 μM Retinol) was 80.2% and 102.9%, the “% of Control” value (1 μM test compound alone, 1 µM) was 77.3% and 105.2% and the “% of Control” value [7] was 75.4%. The activity at 1 µM [1] was 114%, the activity at 10 µM [4] was 65.3% and the activity at 10 µM [5] was 63.8%. It also gave an activity at 10 µM [6] of 63%.
Work on `O=C(Nc1ccc(OC(F)(F)F)cc1)N1c2ccccc2CCc2ccccc21` [Compound B] yielded an activity at 1 µM [1] of 86%, an activity at 1 µM [2] of 74.2% and an activity at 1 µM [3] of 88.9%. It also gave an activity at 10 µM [4] of 96%, an activity at 10 µM [5] of 111% and an activity at 10 µM [6] of 82%.
For `Cc1c(Cl)cccc1NC(=O)N1c2ccccc2CCc2ccccc21` [Compound D], the “% of Control” value (100 μM test compound + 1 μM Retinol) was 1.1%, the “% of Control” value (100 μM test compound + 10 μM Retinol) was 0.5% and the “% of Control” value (100 μM test compound alone) was 1.8%. It also gave an activity at 1 µM [1] of 75.4%, an activity at 1 µM [2] of 74.3% and an activity at 1 µM [3] of 80.1%. It also gave an activity at 10 µM [4] of 105%, an activity at 10 µM [5] of 88.7% and an activity at 10 µM [6] of 101%.
`O=C(Nc1ccc(O)cc1)N1c2ccccc2CCc2ccccc21` [Compound C] showed an activity at 1 µM [1] of 83.7%, an activity at 1 µM [2] of 70.3% and an activity at 1 µM [3] of 91.4%. For the same molecule, the activity at 10 µM [4] was 27.5%, the activity at 10 µM [5] was 1.4% and the activity at 10 µM [6] was 41.5%. The “sebum suppressive activity when combined with retinol” value (in the presence of retinol / a retinoid, summary in words) was “improved activity”.
With `O=C(CC1c2ccccc2-c2ccccc21)N1CCC(O)(c2ccc(Cl)cc2)CC1` [Compound F] the “% of Control” value (10 μM test compound alone) was 26.7% and 75.0%, the activity at 1 µM [1] was 35.7% and the activity at 1 µM [2] was 29.3%. For the same molecule, the activity at 10 µM [4] was 15.3%.
With `CC1=C(/C=C/C(C)=C/C=C/C(C)=C/CO)C(C)(C)CCC1` [Retinol, retinol, reference compound] the “% of Control” value (1 μM Retinol alone) was 98.4% and 99.9% and 85.5% and 99.3%, the “% of Control” value (10 μM Retinol alone) was 101.8% and 111.7% and 100.1% and 81.8% and 104.8% and 95.2% and the sebum suppressive activity (alone, summary in words) was “inactive”.
For `O=S1(=O)OC(c2ccc(O)cc2)(c2ccc(O)cc2)c2ccccc21` [Phenol Red, phenol red, reference compound], the “% of Control” value (28 μM Phenol Red (positive control)) was 84.4% and the activity at 28 µM (Homo sapiens, 28 μM Phenol Red (positive control)) was 67.6%.
